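Each compound was tested at five concentrations against cells in 96-well plates for 48 hours. The concentration for 50% growth inhibition is given as GI50. Definition used: TGI = concentration required for complete inhibition of growth.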
These compounds were tested on MDA-MB-435 (assay: growth of human tumour cells (NCI), 48 h).
Compound `COc1cc(/C=C\c2cc(OC)c(OC)c(OC)c2)cc(N/C=C\C(=O)c2c[nH]c3ccccc23)c1OC` has a GI50 of 2.43 µM and a TGI of 8.04 µM.
With `CCCCCCCCCCNC(=O)CI` the GI50 was 1.97 µM and the TGI was 4.51 µM.
`CCCC/C(=C\C1=C(C)C(=O)C(OC)=C(OC)C1=O)C(=O)O` showed a GI50 of over 100 µM and a TGI of over 100 µM.
Work on `CCc1ccc2c(c1)C(=O)c1c-2n(CCCN=[N+]=[N-])c(=O)c2cc([N+](=O)[O-])ccc12` yielded a GI50 of over 50 µM and a TGI of over 50 µM.
Work on `Cc1cc(N/N=C/c2ccccn2)nc2ccccc12` yielded a GI50 of 0.679 µM and a TGI of 15.9 µM.
Work on `Cn1c(=O)c2c(nc(C(=N)SCC(=O)O)n2C)n(C)c1=O` yielded a TGI of over 100 µM.
`COc1ccc(-c2nn(-c3cccc(Cl)c3)cc2-c2cc(-c3ccccc3)[nH]c(=O)c2C#N)cc1` gave a GI50 of over 50 µM and a TGI of over 50 µM.
In the case of `Nc1cc(Br)c(-c2nnc(CCC(=O)c3nc4ccccc4[nH]3)o2)c(Br)c1`, the GI50 was 1.56 µM and the TGI was 3.71 µM.
Compound `CC(C)(C)[Si](C)(C)OC1[C@@H](CNC(=O)NC(=O)CCl)O[C@@H](n2cnc3c(N)ncnc32)[C@H]1O[Si](C)(C)C(C)(C)C` (stereo not given in full) has a GI50 of 0.798 µM and a TGI of 1.56 µM.
`CC1CC(O)C(=O)C(O[C@@H]2C[C@@H]3CC[C@@H]4[C@H](CC[C@]5(C)C(C6=CC(=O)OC6)CC[C@]45O)[C@@]3(C=O)C[C@H]2O)O1` (stereo not given in full) was tested, and the TGI was 0.177 µM.
`COc1ccc(/C(C)=C(\c2ccc(OCCN3CCCCCC3)cc2)c2ccc(OC(=O)C3CCCCC3)cc2)cc1` was tested, and the GI50 was 1.57 µM and the TGI was 3.38 µM.

The compounds below were run on SK-MEL-5 melanoma (assay: growth of human tumour cells (NCI), 48 h).
Compound `COc1cc(/C=C\c2cc(OC)c(OC)c(OC)c2)cc(N/C=C\C(=O)c2c[nH]c3ccccc23)c1OC` has a GI50 of 3.14 µM and a TGI of 12.6 µM.
Work on `CCCCCCCCCCNC(=O)CI` yielded a GI50 of 1.96 µM and a TGI of 4.72 µM.
In the case of `CCCC/C(=C\C1=C(C)C(=O)C(OC)=C(OC)C1=O)C(=O)O`, the GI50 was over 100 µM and the TGI was over 100 µM.
For `CCc1ccc2c(c1)C(=O)c1c-2n(CCCN=[N+]=[N-])c(=O)c2cc([N+](=O)[O-])ccc12`, the GI50 was over 50 µM and the TGI was over 50 µM.
Work on `Cc1cc(N/N=C/c2ccccn2)nc2ccccc12` yielded a GI50 of 0.302 µM and a TGI of 6.24 µM.
`Cn1c(=O)c2c(nc(C(=N)SCC(=O)O)n2C)n(C)c1=O` gave a TGI of 37.6 µM.
With `COc1ccc(-c2nn(-c3cccc(Cl)c3)cc2-c2cc(-c3ccccc3)[nH]c(=O)c2C#N)cc1` the GI50 was 5.76 µM and the TGI was over 50 µM.
In the case of `Nc1cc(Br)c(-c2nnc(CCC(=O)c3nc4ccccc4[nH]3)o2)c(Br)c1`, the GI50 was 14.2 µM and the TGI was over 100 µM.
In the case of `CC(C)(C)[Si](C)(C)OC1[C@@H](CNC(=O)NC(=O)CCl)O[C@@H](n2cnc3c(N)ncnc32)[C@H]1O[Si](C)(C)C(C)(C)C` (stereo not given in full), the GI50 was 0.862 µM and the TGI was 1.6 µM.
With `CC1CC(O)C(=O)C(O[C@@H]2C[C@@H]3CC[C@@H]4[C@H](CC[C@]5(C)C(C6=CC(=O)OC6)CC[C@]45O)[C@@]3(C=O)C[C@H]2O)O1` (stereo not given in full) the TGI was 0.0174 µM.
Compound `COc1ccc(/C(C)=C(\c2ccc(OCCN3CCCCCC3)cc2)c2ccc(OC(=O)C3CCCCC3)cc2)cc1` has a GI50 of 1.08 µM and a TGI of 3 µM.

These compounds were tested on TK-10 renal (assay: growth of human tumour cells (NCI), 48 h).
For `COc1cc(/C=C\c2cc(OC)c(OC)c(OC)c2)cc(N/C=C\C(=O)c2c[nH]c3ccccc23)c1OC`, the GI50 was 1.86 µM and the TGI was 3.54 µM.
`CCCCCCCCCCNC(=O)CI` gave a GI50 of 1.76 µM and a TGI of 3.33 µM.
With `CCCC/C(=C\C1=C(C)C(=O)C(OC)=C(OC)C1=O)C(=O)O` the GI50 was over 100 µM and the TGI was over 100 µM.
In the case of `CCc1ccc2c(c1)C(=O)c1c-2n(CCCN=[N+]=[N-])c(=O)c2cc([N+](=O)[O-])ccc12`, the GI50 was over 50 µM and the TGI was over 50 µM.
Work on `Cc1cc(N/N=C/c2ccccn2)nc2ccccc12` yielded a GI50 of 0.674 µM and a TGI of 20.6 µM.
`Cn1c(=O)c2c(nc(C(=N)SCC(=O)O)n2C)n(C)c1=O` showed a TGI of over 100 µM.
`COc1ccc(-c2nn(-c3cccc(Cl)c3)cc2-c2cc(-c3ccccc3)[nH]c(=O)c2C#N)cc1` gave a GI50 of 1.47 µM and a TGI of 4.6 µM.
`Nc1cc(Br)c(-c2nnc(CCC(=O)c3nc4ccccc4[nH]3)o2)c(Br)c1` was tested, and the GI50 was 36.5 µM and the TGI was over 100 µM.
`CC(C)(C)[Si](C)(C)OC1[C@@H](CNC(=O)NC(=O)CCl)O[C@@H](n2cnc3c(N)ncnc32)[C@H]1O[Si](C)(C)C(C)(C)C` (stereo not given in full) showed a GI50 of 1.39 µM and a TGI of 3.63 µM.
Work on `CC1CC(O)C(=O)C(O[C@@H]2C[C@@H]3CC[C@@H]4[C@H](CC[C@]5(C)C(C6=CC(=O)OC6)CC[C@]45O)[C@@]3(C=O)C[C@H]2O)O1` (stereo not given in full) yielded a TGI of 0.173 µM.
`COc1ccc(/C(C)=C(\c2ccc(OCCN3CCCCCC3)cc2)c2ccc(OC(=O)C3CCCCC3)cc2)cc1` was tested, and the GI50 was 1.84 µM and the TGI was 4.25 µM.

What follows are compounds tested on OVCAR-3 ovarian (assay: growth of human tumour cells (NCI), 48 h).
`COc1cc(/C=C\c2cc(OC)c(OC)c(OC)c2)cc(N/C=C\C(=O)c2c[nH]c3ccccc23)c1OC` showed a GI50 of 1.72 µM and a TGI of 3.21 µM.
In the case of `CCCCCCCCCCNC(=O)CI`, the GI50 was 1.87 µM and the TGI was 3.44 µM.
`CCCC/C(=C\C1=C(C)C(=O)C(OC)=C(OC)C1=O)C(=O)O` gave a GI50 of over 100 µM and a TGI of over 100 µM.
For `CCc1ccc2c(c1)C(=O)c1c-2n(CCCN=[N+]=[N-])c(=O)c2cc([N+](=O)[O-])ccc12`, the GI50 was over 50 µM and the TGI was over 50 µM.
For `Cc1cc(N/N=C/c2ccccn2)nc2ccccc12`, the GI50 was 0.382 µM and the TGI was 11 µM.
`Cn1c(=O)c2c(nc(C(=N)SCC(=O)O)n2C)n(C)c1=O` gave a TGI of over 100 µM.
`COc1ccc(-c2nn(-c3cccc(Cl)c3)cc2-c2cc(-c3ccccc3)[nH]c(=O)c2C#N)cc1` was tested, and the GI50 was 2.84 µM and the TGI was 16.8 µM.
`Nc1cc(Br)c(-c2nnc(CCC(=O)c3nc4ccccc4[nH]3)o2)c(Br)c1` showed a GI50 of 2.6 µM and a TGI of 6.98 µM.
For `CC(C)(C)[Si](C)(C)OC1[C@@H](CNC(=O)NC(=O)CCl)O[C@@H](n2cnc3c(N)ncnc32)[C@H]1O[Si](C)(C)C(C)(C)C` (stereo not given in full), the GI50 was 1.02 µM and the TGI was 1.94 µM.
`CC1CC(O)C(=O)C(O[C@@H]2C[C@@H]3CC[C@@H]4[C@H](CC[C@]5(C)C(C6=CC(=O)OC6)CC[C@]45O)[C@@]3(C=O)C[C@H]2O)O1` (stereo not given in full) showed a TGI of 0.0346 µM.
`COc1ccc(/C(C)=C(\c2ccc(OCCN3CCCCCC3)cc2)c2ccc(OC(=O)C3CCCCC3)cc2)cc1` showed a GI50 of 1.16 µM and a TGI of 3.13 µM.

These compounds were tested on 786-0 renal (assay: growth of human tumour cells (NCI), 48 h).
`COc1cc(/C=C\c2cc(OC)c(OC)c(OC)c2)cc(N/C=C\C(=O)c2c[nH]c3ccccc23)c1OC` gave a GI50 of 2.04 µM and a TGI of 4.14 µM.
In the case of `CCCCCCCCCCNC(=O)CI`, the GI50 was 1.8 µM and the TGI was 3.37 µM.
`CCCC/C(=C\C1=C(C)C(=O)C(OC)=C(OC)C1=O)C(=O)O` gave a GI50 of over 100 µM and a TGI of over 100 µM.
`CCc1ccc2c(c1)C(=O)c1c-2n(CCCN=[N+]=[N-])c(=O)c2cc([N+](=O)[O-])ccc12` was tested, and the GI50 was over 50 µM and the TGI was over 50 µM.
Compound `Cc1cc(N/N=C/c2ccccn2)nc2ccccc12` has a GI50 of 0.384 µM and a TGI of 12.4 µM.
Compound `Cn1c(=O)c2c(nc(C(=N)SCC(=O)O)n2C)n(C)c1=O` has a TGI of over 100 µM.
Compound `COc1ccc(-c2nn(-c3cccc(Cl)c3)cc2-c2cc(-c3ccccc3)[nH]c(=O)c2C#N)cc1` has a GI50 of 1.6 µM and a TGI of 7.25 µM.
In the case of `Nc1cc(Br)c(-c2nnc(CCC(=O)c3nc4ccccc4[nH]3)o2)c(Br)c1`, the GI50 was 21 µM and the TGI was 61.7 µM.
With `CC(C)(C)[Si](C)(C)OC1[C@@H](CNC(=O)NC(=O)CCl)O[C@@H](n2cnc3c(N)ncnc32)[C@H]1O[Si](C)(C)C(C)(C)C` (stereo not given in full) the GI50 was 0.662 µM and the TGI was 1.55 µM.
Work on `CC1CC(O)C(=O)C(O[C@@H]2C[C@@H]3CC[C@@H]4[C@H](CC[C@]5(C)C(C6=CC(=O)OC6)CC[C@]45O)[C@@]3(C=O)C[C@H]2O)O1` (stereo not given in full) yielded a TGI of 0.0341 µM.
`COc1ccc(/C(C)=C(\c2ccc(OCCN3CCCCCC3)cc2)c2ccc(OC(=O)C3CCCCC3)cc2)cc1` was tested, and the GI50 was 1.11 µM and the TGI was 3.06 µM.

— PubChem BioAssay (NCI)
